Reference: US20250257061A1, “COMPOSITIONS AND METHODS FOR TREATING CANCER AND REDUCING WNT MEDIATED EFFECTS” (StemSynergy Therapeutics, Inc., priority 2024, published 2025)
Like-named read-outs stand apart in the source and are kept apart here.

What was measured:
[1] = test system: Wnt-dependent HCT116 cell line; test: Viability assay using Wnt-dependent HCT116 cell line (Cell Titer Glo); format: cell-based; settings: Homo sapiens, HCT-116, HCT116 cells, read-out: Viability IC50 category
Method: All compounds were tested using the human cell line HEK STF293. This cell line carries a Wnt reporter (TCF/LEF1 promoter), which drives expression of the firefly luciferase protein. The level of Wnt activity is directly correlated with the level of luciferase activity (determined using a simple assay). Compounds that inhibit Wnt signaling by reducing luciferase activity in these two cell lines are further tested biochemically. […] Compounds were further tested in a Viability assay using Wnt-dependent HCT116 cell line. HEK293 cells were seeded in a 6-well plate at approximately 8.0×10^5 cells (2 mL per well). On the first day, Wnt3a-conditioned media (1:1) and compounds (1:100) were added to the plated cells. The final concentrations of compounds were 1 μM, 500 nM, and 100 nM. Vehicle (DMSO) and a Wnt3a-conditioned media plus Vehicle samples were also prepared as controls. Lysates were collected (with non-denaturing lysis buffer) after 24 hours incubation, and protein concentrations determined by Bradford Assay. Immunoblotting with an anti-beta-catenin antibody (equivalent amounts of protein/lane for each condition) were subsequently performed to determine beta-catenin levels. HCT116 cells were seeded at 2,500 cells/well in a 96-well dish (Volume: 100 μL/well). On the second day, the 10 mM stock solution of each test compound was thawed at room temperature. Dilutions of the test compound were prepared in DMSO in a V-bottom 96-well plate. The stock compound solution, DMSO-diluted compound solutions, and DMSO were further diluted 500-fold in cell culture media, and 100 μL of the compound- or DMSO-containing cell culture media was added to each well of the cells. […] The final DMSO concentration was 0.1% in all wells. On the fifth day, 150 μL of media was removed from each well. 50 μL/well Cell Titer Glo reagent (Promega) was added to each well. The plate was shaken at 130 rpm for 15 minutes at room temperature, and the cell viability was determined using a luminescence plate reader. All compounds were tested using the human cell line HEK STF293. This cell line carries a Wnt reporter (TCF/LEF1 promoter), which drives expression of the firefly luciferase protein. The level of Wnt activity is directly correlated with the level of luciferase activity (determined using a simple assay). Compounds that inhibit Wnt signaling by reducing luciferase activity in these two cell lines are further tested biochemically. […] Compounds were further tested in a Viability assay using Wnt-dependent HCT116 cell line. HEK293 cells were seeded in a 6-well plate at approximately 8.0×10^5 cells (2 mL per well). On the first day, Wnt3a-conditioned media (1:1) and compounds (1:100) were added to the plated cells. The final concentrations of compounds were 1 μM, 500 nM, and 100 nM. Vehicle (DMSO) and a Wnt3a-conditioned media plus Vehicle samples were also prepared as controls. Lysates were collected (with non-denaturing lysis buffer) after 24 hours incubation, and protein concentrations determined by Bradford Assay. Immunoblotting with an anti-beta-catenin antibody (equivalent amounts of protein/lane for each condition) were subsequently performed to determine beta-catenin levels. HCT116 cells were seeded at 2,500 cells/well in a 96-well dish (Volume: 100 μL/well). On the second day, the 10 mM stock solution of each test compound was thawed at room temperature. Dilutions of the test compound were prepared in DMSO in a V-bottom 96-well plate. The stock compound solution, DMSO-diluted compound solutions, and DMSO were further diluted 500-fold in cell culture media, and 100 μL of the compound- or DMSO-containing cell culture media was added to each well of the cells. […] The final DMSO concentration was 0.1% in all wells. On the fifth day, 150 μL of media was removed from each well. 50 μL/well Cell Titer Glo reagent (Promega) was added to each well. The plate was shaken at 130 rpm for 15 minutes at room temperature, and the cell viability was determined using a luminescence plate reader. […]

[2] = test system: Wnt reporter (TCF/LEF1 promoter); test: HEK STF293 Wnt reporter (TOPFlash) luciferase assay, Steady Glo normalised to Cell Titer; format: cell-based, human; settings: Homo sapiens, STF/293, HEK STF293 cells, Wnt3a-conditioned media, read-out: TOPFlash IC50 category
Method: All compounds were tested using the human cell line HEK STF293. This cell line carries a Wnt reporter (TCF/LEF1 promoter), which drives expression of the firefly luciferase protein. The level of Wnt activity is directly correlated with the level of luciferase activity (determined using a simple assay). Compounds that inhibit Wnt signaling by reducing luciferase activity in these two cell lines are further tested biochemically. […] Compounds were further tested in a Viability assay using Wnt-dependent HCT116 cell line. Compounds were prepared as 10 mM stocks for each compound in DMSO. Dilutions were prepared in a 96-well plate in DMSO. The stock dilutions are as follows: 10 mM, 1 mM, 100 μM, 10 μM, 100 nM, and 10 nM. Plates were sealed and stored at −20° C. […] On the first day, Wnt3a-conditioned media (1:1) were added along with diluted compounds (1:100). […] The final concentrations should therefore be 100 μM, 10 μM, 1 μM, 100 nM, 10 nM, and 1 nM. On the second day, the media was removed and 75 μL of Passive Lysis Buffer (Promega) is added to each well. The plate was shaken at 130 rpm for 15 minutes. For the Steady Glo assay, 45 μL of the lysis was removed and added to a white 96-well plate containing 45 μL/well of Steady Glo solution (Promega). For the Cell Titer assay, 25 μL of the lysis was transferred to a white 96-well plate containing 25 μL/well of Cell Titer solution (Promega). Both Steady Glo and Cell Titer assays were read with a luminescence plate reader. When determining EC50, the Steady Glo values were divided by the Cell Titer values to normalize for cell number. All compounds were tested using the human cell line HEK STF293. This cell line carries a Wnt reporter (TCF/LEF1 promoter), which drives expression of the firefly luciferase protein. The level of Wnt activity is directly correlated with the level of luciferase activity (determined using a simple assay). Compounds that inhibit Wnt signaling by reducing luciferase activity in these two cell lines are further tested biochemically. […] Compounds were further tested in a Viability assay using Wnt-dependent HCT116 cell line. Compounds were prepared as 10 mM stocks for each compound in DMSO. Dilutions were prepared in a 96-well plate in DMSO. The stock dilutions are as follows: 10 mM, 1 mM, 100 μM, 10 μM, 100 nM, and 10 nM. Plates were sealed and stored at −20° C. […] On the first day, Wnt3a-conditioned media (1:1) were added along with diluted compounds (1:100). […] The final concentrations should therefore be 100 μM, 10 μM, 1 μM, 100 nM, 10 nM, and 1 nM. On the second day, the media was removed and 75 μL of Passive Lysis Buffer (Promega) is added to each well. The plate was shaken at 130 rpm for 15 minutes. For the Steady Glo assay, 45 μL of the lysis was removed and added to a white 96-well plate containing 45 μL/well of Steady Glo solution (Promega). For the Cell Titer assay, 25 μL of the lysis was transferred to a white 96-well plate containing 25 μL/well of Cell Titer solution (Promega). Both Steady Glo and Cell Titer assays were read with a luminescence plate reader. When determining EC50, the Steady Glo values were divided by the Cell Titer values to normalize for cell number. All compounds were tested using the human cell line HEK STF293. This cell line carries a Wnt reporter (TCF/LEF1 promoter), which drives expression of the firefly luciferase protein. The level of Wnt activity is directly correlated with the level of luciferase activity (determined using a simple assay). Compounds that inhibit Wnt signaling by reducing luciferase activity in these two cell lines are further tested biochemically. […] Compounds were further tested in a Viability assay using Wnt-dependent HCT116 cell line. Compounds were prepared as 10 mM stocks for each compound in DMSO. Dilutions were prepared in a 96-well plate in DMSO. The stock dilutions are as follows: 10 mM, 1 mM, 100 μM, 10 μM, 100 nM, and 10 nM. Plates were sealed and stored at −20° C. […]

[3] = Examples for Formulae (VIII), (IX), and (X)
[4] = Examples for Formulae (I), (II), and (III)
[5] = Examples for Formulae (IV), (V), (VI), and (VII)

Structure (SMILES)	IC50 [1, 3]	IC50 [2, 3]	IC50 [1, 4]	IC50 [2, 4]	IC50 [1, 5]	IC50 [2, 5]
CS(=O)(=O)c1ccc(-n2nccc2C(=O)Nc2nc(-c3ccccn3)co2)cc1 [Example 1]	< 200 nM	200 to 500 nM				
Cc1c(C(=O)Nc2nc(-c3ccccn3)cs2)cnn1Cc1ccccc1 [Example 1]			1000 to 10000 nM	1000 to 10000 nM		
Cc1onc(-c2cccs2)c1C(=O)Nc1nc(-c2ccccn2)cs1 [Example 1]					200 to 500 nM	< 200 nM
Cn1cc(C(=O)Nc2nc(-c3ccccn3)cs2)c(-c2ccccc2Cl)n1 [Example 2]			500 to 1000 nM	1000 to 10000 nM		
O=C(Nc1nc(-c2ccccn2)cs1)c1ccc(=O)n(-c2ccc(F)cc2)c1 [Example 2]	500 to 1000 nM	200 to 500 nM				
O=C(Nc1nc(-c2ccccn2)cs1)c1ocnc1-c1ccccc1 [Example 2]					200 to 500 nM	< 200 nM
COc1ccc(Cn2cc(C(=O)Nc3nc(-c4ccccn4)cs3)cn2)cc1 [Example 3]			1000 to 10000 nM	1000 to 10000 nM		
Cc1noc(-c2ccccc2)c1C(=O)Nc1nc(-c2ccccn2)cs1 [Example 3]					200 to 500 nM	200 to 500 nM
O=C(Nc1nc(-c2ccccn2)cs1)c1ccc(=O)n(-c2ccccc2F)c1 [Example 3]	500 to 1000 nM	200 to 500 nM				
Cc1nn(Cc2ccccc2)c(C)c1C(=O)Nc1nc(-c2ccccn2)cs1 [Example 4]			1000 to 10000 nM	500 to 1000 nM		
Cc1onc(-c2ccc(F)cc2)c1C(=O)Nc1nc(-c2ccccn2)cs1 [Example 4]					200 to 500 nM	< 200 nM
O=C(Nc1nc(-c2ccccn2)cs1)c1ccc(=O)n(Cc2ccc(F)cc2)c1 [Example 4]	500 to 1000 nM	500 to 1000 nM				
Cc1nn(-c2ccc(F)cc2)c(C)c1C(=O)Nc1nc(-c2ccccn2)cs1 [Example 5]			1000 to 10000 nM	1000 to 10000 nM		
Cc1onc(-c2cccc(F)c2)c1C(=O)Nc1nc(-c2ccccn2)cs1 [Example 5]					200 to 500 nM	200 to 500 nM
O=C(Nc1nc(-c2ccccn2)cs1)c1ccc(=O)n(Cc2ccccc2Cl)c1 [Example 5]	200 to 500 nM	200 to 500 nM				
Cc1nn(Cc2ccc(F)cc2)c(C)c1C(=O)Nc1nc(-c2ccccn2)cs1 [Example 7]			500 to 1000 nM	500 to 1000 nM		
Cc1onc(-c2ccccc2F)c1C(=O)Nc1nc(-c2ccccn2)cs1 [Example 7]					200 to 500 nM	200 to 500 nM
O=C(Nc1nc(-c2ccccn2)cs1)c1ccc(=O)n(Cc2ccc(C(F)(F)F)cc2)c1 [Example 7]	200 to 500 nM	200 to 500 nM				
Cc1nc(-c2ccc(F)cc2)c(C(=O)Nc2nc(-c3ccccn3)cs2)o1 [Example 8]					< 200 nM	< 200 nM
Cc1nn(-c2ccc(F)cc2F)c(C)c1C(=O)Nc1nc(-c2ccccn2)cs1 [Example 8]			500 to 1000 nM	500 to 1000 nM		
O=C(Nc1nc(-c2ccccn2)cs1)c1cc(Cl)c(=O)n(Cc2ccc(C(F)(F)F)cc2)c1 [Example 8]	200 to 500 nM	500 to 1000 nM				
Cc1nc(-c2ccc(Cl)cc2)c(C(=O)Nc2nc(-c3ccccn3)cs2)o1 [Example 9]					< 200 nM	< 200 nM
Cc1nn(Cc2ccc(F)cc2)c(Cl)c1C(=O)Nc1nc(-c2ccccn2)cs1 [Example 9]			500 to 1000 nM	500 to 1000 nM		
O=C(Nc1nc(-c2ccccn2)cs1)c1ccn(Cc2ccc(F)cc2)c(=O)c1 [Example 9]	1000 to 10000 nM	1000 to 10000 nM				
Cc1ccc(Cn2nc(C)c(C(=O)Nc3nc(-c4ccccn4)cs3)c2C)cc1 [Example 10]			1000 to 10000 nM	500 to 1000 nM		
Cc1nc(-c2ccccc2F)c(C(=O)Nc2nc(-c3ccccn3)cs2)o1 [Example 10]					200 to 500 nM	< 200 nM
O=C(Nc1nc(-c2ccccn2)cs1)c1ccn(Cc2ccc(C(F)(F)F)cc2)c(=O)c1 [Example 10]	500 to 1000 nM	500 to 1000 nM				
Cc1nn(-c2ccccc2Cl)c(C(F)F)c1C(=O)Nc1nc(-c2ccccn2)cs1 [Example 12]			500 to 1000 nM	200 to 500 nM		
O=C(Nc1nc(-c2ccccn2)cs1)c1cccnc1-c1ccc(F)cc1 [Example 12]	500 to 1000 nM	200 to 500 nM				
O=C(Nc1nc(-c2ccccn2)cs1)c1ocnc1-c1ccc(F)cc1F [Example 12]					200 to 500 nM	200 to 500 nM
